Measured values published in patent publication EP2296651B1, “5-HYDROXYMETHYL-OXAZOLIDIN-2-ONE DERIVATIVES FOR TREATING BACTERIAL INTESTINAL DISEASES” (Actelion Pharmaceuticals Ltd., priority 2008, dated 2009).
In brackets after ≈: the same amount, converted by molar mass.

Columns and labels:
[1] = system: Bacteroides fragilis A-502 T 7403; assay: Agar dilution MIC, anaerobic strains; type: cell-based; details: A502T7403, 48 h
S. aureus ATCC 29213 = assay: Broth microdilution MIC, aerobic Gram-positive bacteria; details: Staphylococcus aureus, ATCC29213, 48 h
[2] = system: Lactococcus lactis A-1256 DSM 20069; assay: Agar dilution MIC, anaerobic strains; type: cell-based
C. difficile ATCC 43596 = assay: Broth microdilution MIC, anaerobic; type: cell-based, Clostridium difficile; details: Clostridioides difficile, ATCC43596, 48h at 37°C, read-out: MIC regarding C. difficile ATCC 43596
[3] = system: toxigenic C difficile strain 10465; assay: C. difficile hamster model; type: in vivo, Golden Syrian hamsters
Experimental: Golden Syrian hamsters were given a single injection of clindamycin phosphate (10 mg/kg s.c.), and a day later animals were infected by gavage with 10^5 CFU of toxigenic C difficile strain 10465. A fulminant colitis results in the majority (∼95%) of animals and develops 1 to 2 days after the administration of C. difficile. Untreated, the colitis progresses rapidly and turns into severe colitis, hemorrhagic necrosis of the cecum and death. The compound of Example 1 was administered orally as a suspension at three dosage levels (10 mg/kg, 30 mg/kg and 100 mg/kg; n = 10 per group). Vancomycin (50 mg/kg) was used as a control. Animals were treated once daily for 5 days and afterwards maintain under observation for an additional 21 days.
The animals were observed three times daily for morbidity and presence or absence of diarrhoea. The final endpoint of the study was survival. Animals judged to be in a moribund state [extended period of weight loss progressing to an emaciated state, anorexia for 24-48 h, prolonged lethargy (more than 3 days), signs of paralysis, skin erosions or trauma, hunched posture, distended abdomen] were euthanized by a single injection of sodium pentobarbital.

C. difficile NC 13366 = assay: Broth microdilution MIC, anaerobic; type: cell-based, Clostridium difficile; details: Clostridioides difficile, NC13366, 48h at 37°C, quinolone-resistant hypervirulent strain, read-out: MIC regarding C. difficile NC 13366
[4] = system: Bacteroides fragilis A-217 B 6306; assay: Agar dilution MIC, anaerobic strains; type: cell-based; details: A217B6306, 48 h
[5] = system: Clostridium difficile A- 1179 NC 13366; assay: Agar dilution MIC, anaerobic strains; type: cell-based; details: Clostridioides difficile, A1179NC13366, 48 h
[6] = system: Bacteroides vulgatus A-989 ATCC 8482; assay: Agar dilution MIC, anaerobic strains; type: cell-based; details: Phocaeicola vulgatus, ATCC8482, 48 h
E. faecium H 7965 = assay: Broth microdilution MIC, aerobic Gram-positive bacteria; details: Enterococcus faecium, H7965, 48 h
[7] = system: 209 diverse clinical isolates of C. difficile; assay: CLSI agar dilution MIC, clinical isolates; type: cell-based, Clostridium difficile; details: Clostridioides difficile, 48 h; 209 clinical isolates of C. difficile; read-out: MIC90
[8] = system: Bifidobacterium bifidum A-1258 DSM 20456; assay: Agar dilution MIC, anaerobic strains; type: cell-based; details: DSM20456, 48 h
[9] = system: Finegoldia magna A-1254 DSM 20470; assay: Agar dilution MIC, anaerobic strains; type: cell-based
[10] = system: C. difficile strain NC 13366; type: cell-based; details: 1 and 8 µg/ml; supernatants at day 5; high density stationary phase cultures
[11] = system: Bacteroides ovatus A-991 ATCC 8483; assay: Agar dilution MIC, anaerobic strains; type: cell-based; details: ATCC8483, 48 h
[12] = system: Lactobacillus acidophilus A-1255 DSM 20079; assay: Agar dilution MIC, anaerobic strains; type: cell-based
E. faecium H 7966 = assay: Broth microdilution MIC, aerobic Gram-positive bacteria; details: Enterococcus faecium, H7966, 48 h
E. faecium H 7969 = assay: as above; details: Enterococcus faecium, H7969, 48 h
[13] = system: Bifidobacterium adolescentis A-1257 DSM 20083; assay: Agar dilution MIC, anaerobic strains; type: cell-based; details: DSM20083, 48 h
[14] = system: Bacteroides fragilis A-293 B 2518; assay: Agar dilution MIC, anaerobic strains; type: cell-based; details: A293B2518, 48 h
C. perfringens DSM 756 = assay: microbe, parasite or virus in culture; type: cell-based; details: Clostridium perfringens, DSM756, 48 h, read-out: MIC regarding C. perfringens DSM 756
S. aureus A-798 (MRSA) = assay: Broth microdilution MIC, aerobic Gram-positive bacteria; details: Staphylococcus aureus, 48 h
[15] = system: Bacteroides fragilis A-501 B 8039; assay: Agar dilution MIC, anaerobic strains; type: cell-based; details: A501B8039, 48 h
[16] = system: Fusobacterium necrophorum A-1260 DSM 20698; assay: Agar dilution MIC, anaerobic strains; type: cell-based; details: DSM20698, 48 h
[17] = system: Eubacterium limosum A-1259 DSM 20698; assay: Agar dilution MIC, anaerobic strains; type: cell-based
[18] = system: C. difficile A-1050 (ATCC 43596); assay: Spore formation at sub-MIC concentrations; type: cell-based; details: 0.5x the MIC; 4 days anaerobic incubation at 37°C
C. difficile ATCC 9689 = assay: Broth microdilution MIC, anaerobic; type: cell-based, Clostridium difficile; details: Clostridioides difficile, ATCC9689, 48h at 37°C, read-out: MIC regarding C. difficile ATCC 9689
[19] = 100 mg/kg orally once daily for 5 days

SMILES: O=C(O)c1cn(C2CC2)c2cc(N3CCC(O)(COc4ccc(N5C[C@H](CO)OC5=O)cc4F)CC3)c(F)cc2c1=O [Example 1, 1-cyclopropyl-6-fluoro-7-{4-[2-fluoro-4-((R)-5-hydroxymethyl-2-oxo-oxazolidin-3-yl)-phenoxymethyl]-4-hydroxy-piperidin-1-yl}-4-oxo-1,4-dihydro-quinoline-3-carboxylic acid]
- MIC [1]: 4 µg/mL (≈ 6.83 µM)
- MIC (S. aureus ATCC 29213): 0.25 µg/mL (≈ 0.427 µM)
- MIC ([2]; DSM20069, 48 h, Lactococcus lactis A-1256, DSM 20069): 0.5 µg/mL (≈ 0.854 µM)
- less activity against Lactococcus lactis A-1256 compared to the compound of Example 5 of WO 2005/058888 ([2]; versus R1): 8 times
- MIC (C. difficile ATCC 43596): 0.125 µg/mL (≈ 0.213 µM)
- survival during the 5 day treatment period ([3]; 10 mg/kg orally once daily for 5 days): all
- survival during the 5 day treatment period ([3]; 30 mg/kg orally once daily for 5 days): all
- animals survived without relapse, relapse phase of 21 days after treatment [3, 19]: 100%
- survival during the 5 day treatment period [3, 19]: all
- MIC (C. difficile NC 13366): 0.06 µg/mL (≈ 0.102 µM)
- MIC [4]: 4 µg/mL (≈ 6.83 µM)
- MIC [5]: ≤ 0.06 µg/mL
- MIC [6]: 2 µg/mL (≈ 3.42 µM)
- MIC (E. faecium H 7965): 0.5 µg/mL (≈ 0.854 µM)
- MIC90 [7]: 0.25 µg/mL (≈ 0.427 µM)
- MIC [8]: 0.5 µg/mL (≈ 0.854 µM)
- MIC ([9]; DSM20470, 48 h, Finegoldia magna A-1254, DSM 20470): 0.25 µg/mL (≈ 0.427 µM)
- less activity against Finegoldia magna A-1254 compared to the compound of Example 5 of WO 2005/058888 ([9]; versus R1): 4 times
- de novo toxin A production [10]: inhibited de novo toxin A production
- MIC [11]: 16 µg/mL (≈ 27.3 µM)
- MIC ([12]; DSM20079, 48 h, Lactobacillus acidophilus A-1255, DSM 20079): 0.5 µg/mL (≈ 0.854 µM)
- less activity against Lactobacillus acidophilus A-1255 compared to the compound of Example 5 of WO 2005/058888 ([12]; versus R1): 8 times
- MIC (E. faecium H 7966): 0.5 µg/mL (≈ 0.854 µM)
- MIC (E. faecium H 7969): 1 µg/mL (≈ 1.71 µM)
- MIC [13]: 0.5 µg/mL (≈ 0.854 µM)
- MIC [14]: 4 µg/mL (≈ 6.83 µM)
- MIC (C. perfringens DSM 756): ≤ 0.03 µg/mL
- MIC (S. aureus A-798 (MRSA)): 0.25 µg/mL (≈ 0.427 µM)
- MIC [15]: 4 µg/mL (≈ 6.83 µM)
- MIC [16]: 1 µg/mL (≈ 1.71 µM)
- MIC ([17]; DSM20698, 48 h, Eubacterium limosum A-1259, DSM 20698): 1 µg/mL (≈ 1.71 µM)
- less activity against Eubacterium limosum A-1259 compared to the compound of Example 5 of WO 2005/058888 ([17]; versus R1): 4 times
- spores of total cell count [18]: < 1%
- MIC (C. difficile ATCC 9689): 0.125 µg/mL (≈ 0.213 µM)
